The results in this text go back to patent US4468403A, “Analgesic substituted piperidylidene-2-sulfon(cyan)amide derivatives” (priority 1982, dated 1984).

“Also recorded” adds a separate entry of the source. Read-outs that look alike come from different tables or passages of the source.

Assay [1] is described as follows: Analgesic antagonist testing against analgesic agonists of the W-1 to W-19 and 0-1 to 0-3 series, e.g. W-3 (phenylquinone writhing). It counts as in vivo, male Swiss albino mice. The method, then: (§1) The percent change is calculated according to the following equation: % change=100- (no. of writhes in treated group/no. of writhes in control group)×100.
A general note: In writhing tests, fewer writhes than in controls are read as antinociception.

Assay [2] is classed as in vivo, male Swiss albino mice. Conditions: for % Inhibn, control (single agent) in antagonist study: alone; for Analgesic action, inhibition action on phenylquinone writhing: dose giving 50 % inhibition / Analgesic action, inhibition action on phenylquinone writhing, % inhibition: subcutaneous; for Analgesic action, inhibition action on phenylquinone writhing: dose giving 50 % inhibition: 30 min before phenyl-p-benzoquinone, dose with 50 % inhibition. The method, then:
as §1

A short description of assay [3]: Analgesic antagonist testing against morphine sulfate (phenylquinone writhing). Type of assay: in vivo, male Swiss albino mice. As for the experimental part:
as §1

Setting [4] is: at the dose listed for the substance under E1.

Take `C=CCN1CC[C@]23c4c5ccc(O)c4O[C@H]2C(=O)CC[C@@]3(O)[C@H]1C5` [Naloxone, reference compound]: the “Antagonist activities, % inhibition of writhing with antagonist + agonist” value in assay [1] (Expt. 5: Naloxone (1.0 mg/kg sc) before W-3 (5.0 mg/kg sc)) worked out at 45%. In assay [1] (Naloxone (1.0 mg/kg sc) vs W-3 (5.0 mg/kg sc)), the “Block of agonist analgesic effect, in words” value is “partial block; also recorded: partially blocks”. Further, the “Antagonist activity, in words” value in assay [1] (toward W-3, dose not given) is recorded as “acted as an antagonist toward W-3”.

For `O=S(=O)(N=C1CCCCN1CC1CC1)c1ccc(Cl)cc1` [Compound W-20, 1-Cyclopropylmethylpiperidylidene-2-(4-chlorophenyl)sulfonamide], the figures for the “% Inhibn, control (single agent) in antagonist study” value in assay [2] (0.5 mg/kg sc), in assay [2] (2.0 mg/kg sc) and in assay [2] (10.0 mg/kg sc) were 36%, 46% and 69%, respectively. Also, the “Analgesic action, inhibition action on phenylquinone writhing: dose giving 50 % inhibition” value (“Analgesic action … dose giving 50 % inhibition” below) in assay [2] came out at 2.3 mg/kg. Besides, the “Analgesic action, inhibition action on phenylquinone writhing, % inhibition” value in assay [2] (setting [4]) was 50%. Also, the “Antagonist activities, % inhibition of writhing with antagonist + agonist” value is recorded as 55% in assay [3] (Expt. 1: W-20 (2.0 mg/kg sc) 10 min before MS (0.2 mg/kg sc)), 66% in assay [3] (Expt. 2: W-20 (10.0 mg/kg sc) 10 min before MS (0.2 mg/kg sc)), 53% in assay [1] (Expt. 3: W-20 (0.5 mg/kg sc) 10 min before W-3 (2.0 mg/kg sc)) and 49% in assay [1] (Expt. 4: W-20 (2.0 mg/kg sc) 10 min before W-3 (2.0 mg/kg sc)). Moreover, the “Block of agonist analgesic effect, in words” value in assay [3] (W-20 (2.0 mg/kg sc) vs MS (0.2 mg/kg sc)) is “near complete block”; in assay [3] (W-20 (10.0 mg/kg sc) vs MS (0.2 mg/kg sc)) it was “complete block; also recorded: completely blocks”; in assay [1] (W-20 (0.5 mg/kg sc) vs W-3 (2.0 mg/kg sc)), “partial block”; in assay [1] (W-20 (2.0 mg/kg sc) vs W-3 (2.0 mg/kg sc)), “complete block; also recorded: completely blocks”.

As for `CN1CCCCC1=NS(=O)(=O)c1cccnc1` [Compound W-14, 1-Methylpiperidylidene-2-(3-pyridyl)sulfonamide], in assay [2] (phenylquinone writhing, mice), the “Analgesic (agonist) activity, in words” value is given as “active analgesics, being comparable to morphine sulfate”. Also, the “Analgesic action … dose giving 50 % inhibition” value in assay [2] was 0.00038 mg/kg. In addition, the “Analgesic action, inhibition action on phenylquinone writhing, % inhibition” value in assay [2] (setting [4]) was determined as 50%.

Take `O=S(=O)(N=C1CCCCN1CC1CC1)c1cccnc1` [Compound W-22, 1-Cyclopropylmethylpiperidylidene-2-(3-pyridyl)sulfonamide]: in assay [2], the “Analgesic action … dose giving 50 % inhibition” value is given as 2.0 mg/kg. For the same compound, the “Analgesic action, inhibition action on phenylquinone writhing, % inhibition” value in assay [2] (dose 2.0 mg/kg (Table 3)) is given as 50%.

`CCCN1CCCCC1=NS(=O)(=O)c1ccc(Cl)cc1` [Compound W-26, 1-n-Propylpiperidylidene-2-(4-chlorophenyl)sulfonamide]: in assay [2], the “Analgesic action … dose giving 50 % inhibition” value is 1.4 mg/kg. In assay [2] (setting [4]), the “Analgesic action, inhibition action on phenylquinone writhing, % inhibition” value worked out at 50%.
